Experimental data: patent publication US20240415858A1, “PROMOTING MYELINATION BY N-ACETYLGLUCOSAMINE AND MODULATION OF N-GLYCAN BRANCHING” (THE REGENTS OF THE UNIVERSITY OF CALIFORNIA, priority 2021, published 2024)

Tested on: MS patients
Test: Open-label Phase 1 trial of oral GIcNAc in MS: safety, tolerability, relapse rate
Type: in vivo, human
Protocol: Based on its immunomodulatory effects, a FDA approved (IND 122235) dose escalation was carried out, open-label NIH funded Phase 1 mechanistic clinical trial of oral GIcNAc in MS patients (RRMS and PMS) on glatiramer acetate and not in acute relapse, with the primary endpoint an increase in N-glycan branching in T cells. This endpoint was used as a surrogate marker for GIcNAc's biological activity. Three doses were evaluated: 1 g TID (3 g total, n=13), 2 g TID (6 g total, n=18) and 4 g TID (12 g total, n=16). Subjects had baseline blood drawn weekly four times, then started on oral GIcNAc with 4 weekly blood draws (FIG. 8A).
The annualized relapse rate on GIcNAc in the combined group was 0.277 (from a single relapse in a subject on the 6 g dose).

Structure (SMILES): CC(=O)N[C@H]1C(O)O[C@H](CO)[C@@H](O)[C@@H]1O (some centres unmarked) [GIcNAc, N-acetylglucosamine]
- annualized relapse rate on GIcNAc (combined group, a single relapse in a subject on the 6 g dose): 0.277
- subjects with mild GI symptoms (gas, bloating, loose stool) (oral, 12 g per day (4 g TID)): ~50%
- discontinuation due to GI symptoms (oral, all doses): No subject discontinued
- safety (oral, all doses (3 g, 6 g, 12 g per day), 4 weeks): safe
- subjects with mild GI symptoms (gas, bloating, loose stool) (oral, the other doses (3 g, 6 g per day)): not
